According to PubChem BioAssay (NCI):
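Five concentrations, 48 hours, 96-well plates. At the GI50, growth is halved. At the TGI there is no net growth.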

What was measured:
Assay in all cases: growth of human tumour cells (NCI), 48 h
[1] = system: HOP-92 NSCLC
[2] = system: OVCAR-5 ovarian
[3] = system: NCI-H226 lung
[4] = system: LXFL 529 NSCLC
[5] = system: HOP-18 NSCLC
[6] = system: LOX IMVI melanoma
[7] = system: KM12 colon
[8] = system: TK-10 renal
[9] = system: HOP-62 NSCLC
[10] = system: NCI-H460 lung
[11] = system: U251 CNS
[12] = system: SK-MEL-2 melanoma
[13] = system: HT29 colon
[14] = system: SK-OV-3 ovarian
[15] = system: IGROV1 ovarian
[16] = system: XF 498 CNS
[17] = system: SNB-75 CNS
[18] = system: K-562 leukemia
[19] = system: EKVX NSCLC
[20] = system: KM20L2 colon
[21] = system: HCT-15 colon
[22] = system: RPMI-8226 leukemia
[23] = system: ACHN renal
[24] = system: 786-0 renal
[25] = system: HCT-116 colon
[26] = system: SF-539 CNS
[27] = system: RXF 393 renal
[28] = system: NCI-H23 lung
[29] = system: OVCAR-3 ovarian
[30] = system: SR leukemia
[31] = system: SNB-19 CNS
[32] = system: OVCAR-4 ovarian
[33] = system: UACC-62 melanoma
[34] = system: HL-60(TB) leukemia
[35] = system: SW-620 colon
[36] = system: A549 NSCLC
[37] = system: UACC-257 melanoma
[38] = system: SF-295 CNS
[39] = system: M19-MEL melanoma
[40] = system: NCI-H522 lung
[41] = system: M14 melanoma
[42] = system: COLO 205 colon
[43] = system: SN12C renal
[44] = system: SNB-78 CNS
[45] = system: CAKI-1 renal
[46] = system: SK-MEL-5 melanoma
[47] = system: DMS 273 small cell lung
[48] = system: OVCAR-8 ovarian
[49] = system: CCRF-CEM leukemia
[50] = system: HCC-2998 colon
[51] = system: DLD-1 colon
[52] = system: UO-31 renal
[53] = system: MOLT-4 leukemia
[54] = system: SF-268 CNS
[55] = system: BT-549 breast
[56] = system: T-47D breast
[57] = system: MCF7 breast
[58] = system: SK-MEL-28 melanoma
[59] = system: HS 578T breast
[60] = system: A498 renal
[61] = system: MDA-MB-435
[62] = system: PC-3 prostate
[63] = system: MALME-3M melanoma
[64] = system: DU-145 prostate
[65] = system: MDA-MB-231 breast
[66] = system: MDA-N
[67] = system: NCI/ADR-RES ovarian

OCC(O)CC[CH2][Sn]([Br])([c]1ccccc1)[c]1ccccc1 (configuration not stated)
GI50 [1]: > 100 µM
TGI [1]: > 100 µM
GI50 [2]: > 100 µM
TGI [2]: > 100 µM
GI50 [3]: > 100 µM
TGI [3]: > 100 µM
GI50 [4]: 88.5 µM
TGI [4]: > 100 µM
GI50 [5]: > 100 µM
TGI [5]: > 100 µM
GI50 [6]: > 100 µM
TGI [6]: > 100 µM
GI50 [7]: > 100 µM
TGI [7]: > 100 µM
GI50 [8]: > 100 µM
TGI [8]: > 100 µM
GI50 [9]: > 100 µM
TGI [9]: > 100 µM
GI50 [10]: > 100 µM
TGI [10]: > 100 µM
GI50 [11]: > 100 µM
TGI [11]: > 100 µM
GI50 [12]: > 100 µM
TGI [12]: > 100 µM
GI50 [13]: > 100 µM
TGI [13]: > 100 µM
GI50 [14]: > 100 µM
TGI [14]: > 100 µM
GI50 [15]: > 100 µM
TGI [15]: > 100 µM
GI50 [16]: > 100 µM
TGI [16]: > 100 µM
GI50 [17]: > 100 µM
TGI [17]: > 100 µM
GI50 [18]: > 100 µM
TGI [18]: > 100 µM
GI50 [19]: > 100 µM
TGI [19]: > 100 µM
GI50 [20]: > 100 µM
TGI [20]: > 100 µM
GI50 [21]: > 100 µM
TGI [21]: > 100 µM
GI50 [22]: > 100 µM
TGI [22]: > 100 µM
GI50 [23]: > 100 µM
TGI [23]: > 100 µM
GI50 [24]: > 100 µM
TGI [24]: > 100 µM
GI50 [25]: > 100 µM
TGI [25]: > 100 µM
GI50 [26]: > 100 µM
TGI [26]: > 100 µM
GI50 [27]: > 100 µM
TGI [27]: > 100 µM
GI50 [28]: > 100 µM
TGI [28]: > 100 µM
GI50 [29]: > 100 µM
TGI [29]: > 100 µM
GI50 [30]: > 100 µM
TGI [30]: > 100 µM
GI50 [31]: > 100 µM
TGI [31]: > 100 µM
GI50 [32]: > 100 µM
TGI [32]: > 100 µM
GI50 [33]: 65.8 µM
TGI [33]: > 100 µM
GI50 [34]: 52 µM
TGI [34]: > 100 µM
GI50 [35]: > 100 µM
TGI [35]: > 100 µM
GI50 [36]: > 100 µM
TGI [36]: > 100 µM
GI50 [37]: > 100 µM
TGI [37]: > 100 µM
GI50 [38]: > 100 µM
TGI [38]: > 100 µM
GI50 [39]: > 100 µM
TGI [39]: > 100 µM
GI50 [40]: 13 µM
TGI [40]: 92.1 µM
GI50 [41]: > 100 µM
TGI [41]: > 100 µM
GI50 [42]: > 100 µM
TGI [42]: > 100 µM
GI50 [43]: > 100 µM
TGI [43]: > 100 µM
GI50 [44]: > 100 µM
TGI [44]: > 100 µM
GI50 [45]: > 100 µM
TGI [45]: > 100 µM
GI50 [46]: > 100 µM
TGI [46]: > 100 µM
GI50 [47]: > 100 µM
TGI [47]: > 100 µM
GI50 [48]: > 100 µM
TGI [48]: > 100 µM
GI50 [49]: > 100 µM
TGI [49]: > 100 µM
GI50 [50]: > 100 µM
TGI [50]: > 100 µM
GI50 [51]: > 100 µM
TGI [51]: > 100 µM
GI50 [52]: > 100 µM
TGI [52]: > 100 µM

COc1ccc(-c2cc(=O)c3ccc(O)cc3o2)cc1OC
TGI [53]: > 100 µM
TGI [1]: > 100 µM
TGI [54]: > 100 µM
TGI [55]: > 100 µM
TGI [2]: > 100 µM
TGI [3]: > 100 µM
TGI [6]: > 100 µM
TGI [56]: > 100 µM
TGI [7]: > 100 µM
TGI [57]: > 100 µM
TGI [8]: > 100 µM
TGI [9]: > 100 µM
TGI [10]: > 100 µM
TGI [11]: > 100 µM
TGI [12]: > 100 µM
TGI [13]: > 100 µM
TGI [58]: > 100 µM
TGI [14]: > 100 µM
TGI [15]: > 100 µM
TGI [59]: > 100 µM
TGI [17]: > 100 µM
TGI [60]: > 100 µM
TGI [18]: > 100 µM
TGI [61]: > 100 µM
TGI [19]: > 100 µM
TGI [62]: > 100 µM
TGI [21]: > 100 µM
TGI [22]: > 100 µM
TGI [23]: > 100 µM
TGI [24]: > 100 µM
TGI [25]: > 100 µM
TGI [26]: > 100 µM
TGI [63]: > 100 µM
TGI [27]: 38.6 µM
TGI [64]: > 100 µM
TGI [28]: > 100 µM
TGI [29]: > 100 µM
TGI [30]: > 100 µM
TGI [31]: > 100 µM
TGI [32]: > 100 µM
TGI [33]: > 100 µM
TGI [34]: > 100 µM
TGI [35]: > 100 µM
TGI [36]: > 100 µM
TGI [37]: > 100 µM
TGI [38]: > 100 µM
TGI [65]: > 100 µM
TGI [40]: > 100 µM
TGI [66]: > 100 µM
TGI [41]: > 100 µM
TGI [42]: > 100 µM
TGI [43]: > 100 µM
TGI [45]: > 100 µM
TGI [46]: 41.8 µM
TGI [67]: > 100 µM
TGI [48]: > 100 µM
TGI [49]: > 100 µM
TGI [50]: > 100 µM
